Where two headings read alike, the source gives them in different places.
Legend:
BRPF1-1 (h) bromodomain = biological target: T1, BRPF1-1 (h) bromodomain (Homo sapiens, UniProt P55201); experiment: Epigenetic binding assay, Bromodomain; conditions: Table 4; read-out: Reference IC50
T1 construct: Bromodomain
T1 sequence (P55201 628-732 limits assumed): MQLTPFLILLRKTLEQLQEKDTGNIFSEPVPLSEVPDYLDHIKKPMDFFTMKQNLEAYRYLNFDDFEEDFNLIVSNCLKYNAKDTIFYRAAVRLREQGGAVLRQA

[1] = biological target: receptors (Bioprint panel); experiment: biochemical; type: binding; conditions: read-out: Reference Compound IC50
HREC = experiment: OncoPanel normal cell proliferation assay (3-day); type: cell-based; conditions: 72 h, renal mixed epithelial, 3-day incubation; for EC50: read-out: Cell Count EC50; for GI50: read-out: Cell Count GI50; for IC50: read-out: Cell Count IC50
Wi38 = experiment: OncoPanel normal cell proliferation assay (3-day); type: cell-based; conditions: Homo sapiens, WI-38, 72 h, Wi38, lung fibroblast, 3-day incubation; for EC50: read-out: Cell Count EC50; for GI50: read-out: Cell Count GI50; for IC50: read-out: Cell Count IC50
HMEC = experiment: OncoPanel normal cell proliferation assay (3-day); type: cell-based; conditions: Homo sapiens, 72 h, HMEC, mammary epithelial, 3-day incubation; for EC50: read-out: Cell Count EC50; for GI50: read-out: Cell Count GI50; for IC50: read-out: Cell Count IC50
CCD 841 CoN = experiment: OncoPanel normal cell proliferation assay (3-day); type: cell-based; conditions: Homo sapiens, 72 h, colon epithelial, 3-day incubation; for EC50: read-out: Cell Count EC50; for GI50: read-out: Cell Count GI50; for IC50: read-out: Cell Count IC50
[2] = biological target: T2, KAT2A (GCN5L2) (h) bromodomain (Homo sapiens, UniProt Q92830); experiment: Epigenetic binding assay, Bromodomain; conditions: Table 9, inhibition/concentration-response curve; read-out: IC50
T2 construct: Bromodomain
T2 sequence (Q92830 728-832 limits assumed): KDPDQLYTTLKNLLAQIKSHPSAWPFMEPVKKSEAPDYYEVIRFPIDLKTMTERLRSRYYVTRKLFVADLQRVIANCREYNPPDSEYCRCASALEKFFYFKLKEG

TAF1(1) (h) bromodomain = biological target: T3, TAF1(1) (h) bromodomain (Homo sapiens, UniProt P21675); experiment: Epigenetic binding assay, Bromodomain; conditions: Table 4; read-out: Reference IC50
T3 construct: Bromodomain
T3 sequence (P21675 1397-1505 limits assumed): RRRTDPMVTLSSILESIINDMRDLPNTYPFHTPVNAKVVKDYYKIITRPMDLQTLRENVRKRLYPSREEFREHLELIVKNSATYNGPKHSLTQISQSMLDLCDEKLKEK

TAF1(2)(h) bromodomain = biological target: T4, TAF1(2)(h) bromodomain (Homo sapiens, UniProt P21675); experiment: Epigenetic binding assay, Bromodomain; conditions: Table 4; read-out: Reference IC50
T4 construct: Bromodomain
T4 sequence (P21675 1519-1628 limits assumed): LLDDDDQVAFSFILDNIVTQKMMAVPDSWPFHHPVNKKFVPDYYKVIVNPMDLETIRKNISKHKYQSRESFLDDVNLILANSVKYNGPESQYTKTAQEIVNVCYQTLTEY

[3] = tested on: human pancreatic carcinoma MIA PaCa-2; conditions: 80 mg/kg Q4D x 4 IP
FALZ (h) bromodomain = biological target: T5, FALZ (h) bromodomain (Homo sapiens, UniProt Q12830); experiment: Epigenetic binding assay, Bromodomain; conditions: Table 4; read-out: Reference IC50
T5 construct: Bromodomain; Eurofins CEREP (France), contract laboratory

ATAD2A (h) bromodomain = biological target: T6, ATAD2A (h) bromodomain (Homo sapiens, UniProt Q6PL18); experiment: Epigenetic binding assay, Bromodomain; conditions: Table 9, inhibition/concentration-response curve; read-out: IC50
T6 construct: Bromodomain
T6 sequence (Q6PL18 980-1092 limits assumed): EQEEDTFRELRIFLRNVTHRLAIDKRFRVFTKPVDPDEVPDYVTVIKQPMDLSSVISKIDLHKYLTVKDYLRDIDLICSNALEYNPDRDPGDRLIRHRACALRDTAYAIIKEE

SP140 (h) bromodomain = biological target: T7, SP140 (h) bromodomain (Homo sapiens, UniProt Q13342); experiment: Epigenetic binding assay, Bromodomain
T7 construct: SP140 (h) bromodomain

PHIP(2) (h) bromodomain = biological target: T8, PHIP(2) (h) bromodomain (Homo sapiens, UniProt Q8WWQ0); experiment: Epigenetic binding assay, Bromodomain; conditions: Table 4; read-out: Reference IC50
T8 construct: Bromodomain

[4] = type: in vivo, female NOD/SCID mice; conditions: Study 1, IP, 35 mg/kg
Protocol: Two studies were conducted by Eurofins Panlabs Taiwan, Ltd. The purpose of Study 1 was to assess the possible adverse effects of Compound 1 alone or in combination with […] in Maximum Tolerated Dose (MTD) assay. The purpose of Study 2 is a follow-up study performed at escalating doses.
Compound 1 was dissolved in 10% Tween 20/90% PBS or 20% Tween 20/80% PBS for IP injections. Compound 1 was administrated alone or in combination with […] at a dosing volume of 10 or 20 mL/kg for each substance.
For mortality, test substance (Compound 1; 100 mg/kg) alone or in combination with […] (8.75, 17.5, or 35 mg/kg; given on the same day) was administered to mice by IP injection to evaluate the possible adverse effects in MTD assay. […]. […]
A follow-up MTD study was performed to evaluate for the adverse effects of the test substance (Compound 1) at escalating doses alone or in combination with […] (17.5 mg/kg) via IP in a group of 3 female NOD/SCID mice at 6-7 weeks of age.
For mortality, treatment with Compound 1 at escalating doses (200 mg/kg) alone and in combination with […] (17.5 mg/kg; given on the same day) were administered by IP injection to a group of 3 female NOD/SCID mice at 6-7 weeks of age. The mortality was monitored at 30 min and again at 3, 24, 48 and 72 hours after compound administrations.
For body weight, test substance (Compound 1) at escalating doses (200 mg/kg) alone or in combination with […] (17.5 mg/kg; given on the same day) were administered by IP injection to a group of 3 female NOD/SCID mice at 6-7 weeks of age. The body weight of each animal was measured and recorded daily for 3 days.
For behavioral, symptomatic i.e. neurological and autonomic signs, test substance (Compound 1; 200 mg/kg) alone or in combination with […] (17.5 mg/kg; given on the same day) were administered by IP injection to a group of 3 female NOD/SCID mice at 6-7 weeks of age. The animals were then observed for presences of acute toxic symptoms and autonomic effects for 30 min after the first dose.

T7 sequence (Q13342 754-857 limits assumed): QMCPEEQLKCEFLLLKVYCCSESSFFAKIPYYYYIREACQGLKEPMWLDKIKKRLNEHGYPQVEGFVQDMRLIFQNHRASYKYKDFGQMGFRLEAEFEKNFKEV

`CCOC(=O)Nc1cc(-c2ccc(C)c(NS(C)(=O)=O)c2)nn2c(C)nnc12` [Bromosporine, reference compound] showed an IC50 (BRPF1-1 (h) bromodomain) of 26 nM.

For `C[C@H](NC[C@H](O)CP(=O)(O)CC1CCCCC1)c1ccc(Cl)c(Cl)c1` [CGP 54626], the IC50 ([1]; GABA GABAB(1b) (h) (antagonist radioligand)) was 2.2 nM.

`N#CC(C#N)=NNc1cccc(Cl)c1` [Carbonyl cyanide 3-chlorophenylhydrazone] gave an EC50 (HREC) of 553 nM, a GI50 (HREC) of 308 nM and an IC50 (HREC) of 1520 nM. The EC50 (Wi38) was 8840 nM, the GI50 (Wi38) was 6150 nM and the IC50 (Wi38) was 8840 nM. The EC50 (HMEC) was greater than 10000 nM, the GI50 (HMEC) was 175 nM and the IC50 (HMEC) was greater than 10000 nM. The EC50 (CCD 841 CoN) was 10000 nM, the GI50 (CCD 841 CoN) was 6210 nM and the IC50 (CCD 841 CoN) was 10000 nM.

In the case of `CCCCCCCCCCCCCCCCOC[C@H](COP(=O)([O-])OCC[N+](C)(C)C)OC(C)=O` [Compound C16-PAF], the IC50 ([1]; PLATELET ACTIVATED FACTOR PAF (h) (agonist radioligand)) is reported as 3.4 nM.

For `CCCOc1ccn2c(C(C)=O)cc(-c3ccccc3S(C)(=O)=O)c2c1` [GSK2801, reference compound], the IC50 [2] was 10000 nM, the IC50 (TAF1(1) (h) bromodomain) was 4400 nM and the IC50 (TAF1(2)(h) bromodomain) was 10000 nM.

For `Nc1ccn([C@@H]2O[C@H](CO)[C@@H](O)C2(F)F)c(=O)n1` [Gemcitabine, reference compound], the “% T/C” value ([3]; Day 1) was 99%, the “% TGI” value ([3]; Day 1) was 1% and the “Tumor Volume, Mean” value ([3]; Day 1) was 89 mm3. For the same compound, the “% T/C” value ([3]; Day 4) was 100%, the “% TGI” value ([3]; Day 4) was 0% and the “Tumor Volume, Mean” value ([3]; Day 4) was 94 mm3. The “% T/C” value ([3]; Day 8) was 81%, the “% TGI” value ([3]; Day 8) was 19% and the “Tumor Volume, Mean” value ([3]; Day 8) was 107 mm3. The “% T/C” value ([3]; Day 11) was 70%, the “% TGI” value ([3]; Day 11) was 30% and the “Tumor Volume, Mean” value ([3]; Day 11) was 139 mm3. The “% T/C” value ([3]; Day 15) was 55%, the “% TGI” value ([3]; Day 15) was 45% and the “Tumor Volume, Mean” value ([3]; Day 15) was 207 mm3.

`CCC(=O)N1CCOc2c(cc(-c3ccc(OC)c(OC)c3)cc2OC[C@H]2CCCN(C)C2)C1` [I-CBP112, reference compound] showed an IC50 (FALZ (h) bromodomain) of 24500 nM.

Compound `Cc1cc(/N=N/c2cc(S(=O)(=O)O)c(C)cc2C)c(N)cc1O` [Ischemin, reference compound] has an IC50 (ATAD2A (h) bromodomain) of 5200 nM, an IC50 (SP140 (h) bromodomain; Table 4, read-out: Reference IC50) of 86000 nM and an IC50 (SP140 (h) bromodomain; Table 9, inhibition/concentration-response curve, read-out: IC50) of 11000 nM.

With `N[C@@H](CCC(=O)O)C(=O)O` [L-glutamate] the IC50 ([1]; GLUTAMATE CHANNELS AMPA (agonist radioligand)) was 370 nM.

Compound `C[C@]12N[C@H](Cc3ccccc31)c1ccccc12` [MK 801] has an IC50 ([1]; GLUTAMATE CHANNELS PCP (antagonist radioligand)) of 9.6 nM.

Work on `CCCCC[C@H](O)/C=C/[C@@H]1[C@@H](C/C=C\CCCC(=O)O)[C@@H](O)C[C@H]1O` [PGF2alpha] yielded an IC50 ([1]; […] (h) (agonist radioligand)) of 3 nM.

`COc1ccc(CCc2nc3cc(-c4c(C)noc4C)ccc3n2C[C@H](C)N2CCOCC2)cc1Cl` [SGC-CBP30, reference compound] showed an IC50 (PHIP(2) (h) bromodomain) of 130 nM.

In the case of `CN[C@@H]1C[C@H]2O[C@@](C)([C@@H]1OC)n1c3ccccc3c3c4c(c5c6ccccc6n2c5c31)C(=O)NC4` [Staurosporine], the GI50 (HREC) is reported as 0.5 nM, the EC50 (Wi38) is reported as 0.49 nM and the GI50 (Wi38) is reported as 0.33 nM. The EC50 (HMEC) was 2.29 nM, the GI50 (HMEC) was 0.91 nM and the GI50 (CCD 841 CoN) was 0.19 nM.

With `C[C@@H]1C[C@@H]([C@H](O)CC2CC(=O)NC(=O)C2)C(=O)[C@@H](C)C1` [cycloheximide, reference compound] the EC50 (HREC) was 117 nM, the GI50 (HREC) was 36.9 nM and the IC50 (HREC) was 593 nM. The EC50 (Wi38) was 285 nM, the GI50 (Wi38) was 369 nM and the IC50 (Wi38) was 871 nM. For the same compound, the EC50 (HMEC) was 3650 nM, the GI50 (HMEC) was 306 nM and the IC50 (HMEC) was 10000 nM. For the same compound, the EC50 (CCD 841 CoN) was 505 nM, the GI50 (CCD 841 CoN) was 588 nM and the IC50 (CCD 841 CoN) was 2770 nM.

`CN1C(=O)CN=C(c2ccccc2)c2cc(Cl)ccc21` [diazepam] showed an IC50 [1] of 9.4 nM.

For `COc1ccc([C@@H]2Sc3ccccc3N(CCN(C)C)C(=O)[C@@H]2OC(C)=O)cc1` [diltiazem], the IC50 ([1]; Ca2+ channel (L, diltiazem site) (benzothiazepines) (antagonist radioligand)) was 57 nM.

With `C=C(C)[C@H]1CN[C@H](C(=O)O)[C@H]1CC(=O)O` [kainic acid] the IC50 [1] was 23 nM.

Work on `C=C(C)[C@@H]1[C@H]2OC(=O)[C@@H]1[C@]1(O)C[C@H]3O[C@]34C(=O)O[C@H]2[C@]14C` [picrotoxinin] yielded an IC50 ([1]; Cl- channel (GABA-gated) (antagonist radioligand)) of 330 nM.

Compound NPY has an IC50 ([1]; NE[…] Y1 (h) (agonist radioligand)) of 0.16 nM.

With TNF-alpha the IC50 ([1]; CYTOKINES TNF-alpha (h) (agonist radioligand)) was 0.16 nM.

Compound “[Nleu13]-motilin (FVPIFTYGELQRLQEKERNKGQ; Motilin norleucine at 13; UniProt P12872 26-47, looked up, variant M13L)” has an IC50 ([1]; motilin(h) (agonist radioligand)) of 0.89 nM.

For alpha -bungarotoxin, the IC50 [1] was 1.9 nM.

For carboplatin [reference compound], the “Response (death/test)” value ([4]; 30 min) was 0/3, the “Response (death/test)” value ([4]; 3 hrs) was 0/3 and the “Response (death/test)” value ([4]; Day 1) was 0/3. For the same compound, the “Response (death/test)” value ([4]; Day 2) was 0/3 and the “Response (death/test)” value ([4]; Day 3) was 0/3.

glucagon gave an IC50 ([1]; glucagon (h) (agonist radioligand)) of 1 nM.

omega -conotoxin GVIA showed an IC50 [1] of 0.0017 nM.
